For one experiment, the target named is T1, human NAAA (Homo sapiens, UniProt Q02083).
T1 construct: expressed in transfected cells; host or cells: HEK-293 (stably transfected, G418 selection); enzyme-enriched lysate
T1 sequence (Q02083 126-359 limits assumed): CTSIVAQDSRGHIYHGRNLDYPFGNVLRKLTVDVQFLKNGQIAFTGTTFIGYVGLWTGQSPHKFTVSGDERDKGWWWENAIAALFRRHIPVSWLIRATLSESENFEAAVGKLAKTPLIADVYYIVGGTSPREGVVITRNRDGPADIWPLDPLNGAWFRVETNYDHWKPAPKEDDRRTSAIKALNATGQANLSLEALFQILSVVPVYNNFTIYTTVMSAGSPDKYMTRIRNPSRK
T1 sequence (Q02083 29-125 limits assumed): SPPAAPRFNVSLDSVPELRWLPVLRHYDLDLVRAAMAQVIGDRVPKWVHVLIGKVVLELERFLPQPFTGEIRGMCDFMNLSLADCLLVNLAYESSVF
Kind of experiment: In vitro human NAAA fluorogenic assay. The settings on record: enzyme-enriched lysate of HEK-293 cells stably transfected with human NAAA. Format: biochemical. On the procedure:
Human recombinant proteins were obtained from HEK-293 stable overexpressing NAAA cell lines. Cells were grown in Dulbecco's modified Eagle medium (DMEM) containing 10% FBS, 1% penicillin/streptomycin, 1% glutamine and 500 μg/mL G418. To obtain membrane preparation cells were scraped off with cold phosphate-buffered saline (PBS) and collected by centrifugation (300×g, 7 min, 4° C.). Cell pellet were stored at −80° C. until protein preparation.
In Vitro Human NAAA Assay
Preparation of Enzyme-Enriched Lysate (h-NAAA).
HEK-293 cells stably transfected with the human NAAA coding sequences were used as enzyme source. Cell pellets were suspended in 20 mM Tris HCl (pH 7.4) with 0.32 M sucrose, sonicated and centrifuged at 800×g for 30 min at 4° C. Supernatants were then ultracentrifuged at 12,000×g for 30 min at 4° C. Pellets were re-suspended in PBS buffer (pH 7.4) and subjected to three freeze-thaw cycles at −80° C. The suspension was finally ultracentrifuged at 105,000×g for 1 h at 4° C., supematants were collected, protein concentration was measured and samples aliquoted and stored at −80° C. until use.
The results are summarized in Table 3 as follows, wherein +: IC50>2 μM; ++: 1.0 μM<IC50<2 μM; +++: IC50<1 μM: […]

Another experiment concerns Neuro2A cells. Kind of experiment: Inhibition of ROS production in Neuro2A cells (H2O2-induced, DCFH-DA fluorescence). Format: cell-based. The following applies: ROS induced with 0.2 mM H2O2; for Inhibition of ROS production in neuro 2A cells, 5 μM (inhibition): compound 5 μM; for Inhibition of ROS production in neuro 2A cells, 10 μM (inhibition): compound 10 μM. How it is done: The experiments carried out to evaluate the inhibition of ROS production using the compounds of the invention were based on the method reported by Danli W. and Patricia Yotnda in Production and Detection of Reactive Oxygen Species (ROS) in Cancers, J. Vis Exp. 2011; (57):3357.
Cultured brain Neuroblastoma2A (Neuro2A) were used.
15.000 Cells were plated in a 96 well plate with black walls and transparent flat bottom in 100 μL of DMEM complete medium (including 10% fetal bovine serum, […] L-Glutamine) containing compounds at indicated concentrations or 0.5% dimethylsulfoxide (DMSO), and kept overnight at 37° C. to allow them to attach to the plate. The following day the culture medium was removed, cells were washed with 100 μl of Phosphate Buffer Saline, pH 7.4 (PBS) and loaded with 100 μL of PBS containing 10 μM of dichloro-dihydro-fluorescein diacetate (DCFH-DA) and compounds at the indicated concentrations (or DMSO 0.5%) for additional 45 min at 37° C. DCFH-DA was prepared as a 20 mM stock in (DMSO) and kept in the dark at 4° C.
ROS production was induced by exposure with 0.2 mM H2O2 dissolved in 100 μl of complete DMEM medium without phenol red. Fluorescence intensity was measured at an […] wavelengths of 485/535 nm and ROS production was monitored for 2 h, at 37° C.

Setting [1] is: read-out: Activity h-NAAA Fluorogenic assay.

Like-named read-outs stand apart in the source and are kept apart here. Some results are limits rather than exact numbers.

Take `Cc1n[nH]c(C)c1S(=O)(=O)N1C[C@H]2CCC[C@@H](C1)[C@H]2Oc1cnccn1` [Example 51, (1R,5S,9r)-3-((3,5-Dimethyl-1H-pyrazol-4-yl)sulfonyl)-9-(pyrazin-2-yloxy)-3-azabicyclo[3.3.1]nonane]: the IC50 at human NAAA (setting [1]) is greater than 2000 nM. For the same molecule, in the experiment on Neuro2A cells, the “Inhibition of ROS production in neuro 2A cells, 5 μM (inhibition)” value (shortened to “Inhibition … 5 μM (inhibition)”) is listed as 0% and the “Inhibition of ROS production in neuro 2A cells, 10 μM (inhibition)” value (from here on “Inhibition … 10 μM (inhibition)”) is 21%.

Consider `Cc1n[nH]c(C)c1S(=O)(=O)N1C[C@H]2CCC[C@@H](C1)[C@@H]2Oc1cnccn1` [Example 52, (1R,5S,9s)-3-((3,5-Dimethyl-1H-pyrazol-4-yl)sulfonyl)-9-(pyrazin-2-yloxy)-3-azabicyclo[3.3.1]nonane], for which, on human NAAA (setting [1]), the IC50 is less than 1000 nM. Moreover, in the experiment on Neuro2A cells, the “Inhibition … 5 μM (inhibition)” value was determined as 9% and the “Inhibition … 10 μM (inhibition)” value is 27%.

Consider `CCCCc1ccc(OC2CC3CCC(C2)N3S(=O)(=O)c2c(C)n[nH]c2C)cc1` [Example 54, (1R,3r,5S)-3-(4-Butylphenoxy)-8-[(3,5-dimethyl-1H-pyrazol-4-yl)sulfonyl]-8-azabicyclo[3.2.1]octane], for which the IC50 against human NAAA (Activity h-NAAA Fluorogenic assay) is less than 1000 nM. Moreover, in the experiment with Neuro2A cells, the “Inhibition … 5 μM (inhibition)” value is given as 17% and the “Inhibition … 10 μM (inhibition)” value is on record as 114%.

These data come from patent US10865194B2, “Therapeutically active bicyclic-sulphonamides and pharmaceutical compositions” (FONDAZIONE ISTITUTO ITALIANO DI TECNOLOGIA, priority 2017, dated 2020).
